Test results as given in US20100093777A1 (Takeda Pharmaceutical Company Limited, priority 2007, published 2010).
pIC50: −log10 of the molar value.

Target: T1, Human ACC1 (Homo sapiens, UniProt Q13085)
T1 construct: His tag (from the pFAST-BacHTc vector); own knowledge: N-terminal 6xHis with TEV site; made in house; host or cells: SF-9 insect cells, recombinant baculovirus BAC-ACC1
Assay: Measurement of ACC1 inhibitory activity (recombinant enzyme, malachite green absorbance)
Assay type: biochemical
Conditions: recombinant human ACC1 8 μg/ml; 30° C.; 200 μM ATP, 200 μM Acetyl-CoA; absorbance 620 nm
Description: The ACC1 inhibitory action of the compound of the present invention was evaluated by the following method.
Human ACC1 gene was cloned by PCR using a human liver cDNA library (Clontech) as a template and Primer 1 and Primer 2 shown below. Primer 1 and Primer 2 were prepared by adding SalI, NotI restriction enzyme recognition sequence based on the information of the base sequence (Genbank Accession U19822) of human ACC1 gene.
PCR was performed using a Pyrobest DNA polymerase (TAKARA BIO INC.) The obtained PCR product was cloned to pT7 Blue vector (Novagen) and, after confirmation of the base sequence, digested with restriction enzymes SalI and NotI. The obtained DNA fragment was inserted to pFAST-BacHTc (Invitrogen) digested with restriction enzymes SalI and NotI to give expression plasmid ACC1/pFAST-BacHTc.
Using the expression plasmid and BAC-TO-BAC Baculovirus Expression System (Invitrogen), virus stock BAC-ACC1 of recombinant Baculovirus was prepared.
SF-9 cells (Invitrogen) were inoculated to a medium (1 L) for insect cells (Sf-900IISFM medium (Invitrogen) containing 10% fetal bovine serum (Trace), 50 mg/L Gentamicin (Invitrogen) and 0.1% Pluronic F-68 (Invitrogen)) at 1×10^6 cells/mL, and cultured with shaking at 27° C., 100 rpm in a 2 L Erlenmeyer flask.
After 24 hr of the culture, recombinant Baculovirus BAC-ACC1 (10 mL) was added, and the cells were further cultured for 3 days. The culture medium was centrifuged at 1000×g for 5 min to give virus-infected cells. The cells were washed with phosphate buffered saline (Invitrogen), and centrifuged under the same conditions, and the obtained cells were cryopreserved at −80° C.
The cryopreserved cells were thawed in ice and suspended in 100 mL of 25 mM HEPES buffer (pH 7.5) containing 10% Glycerol, 0.13 M NaCl, 1 mM EDTA, 25 mM Sodium β-Glycerophosphate and 1 mM Sodium Orthovanadate, and supplemented with Complete Protease Inhibitor (Nippon Boehringer Ingelheim Co., Ltd.). The obtained suspension was homogenized 3 times in a polytron homogenizer (Kinematica) at 20,000 rpm for 30 sec. The obtained cell disruption solution was clarified by centrifugation at 185700×g for 50 min, and filtered through a 0.45 μm filter. The filtrate was passed through a column packed with 12 mL of Ni-NTA Super Flow Gel (QUIAGEN) at a flow rate of about 5 mL/min. The column was washed with buffer A (50 mM HEPES (pH 7.5) containing 0.3 M NaCl), further washed with buffer A containing 20 mM Imidazole, and eluted with buffer A containing 100 mM Imidazole. The eluate was concentrated with Vivaspin 20 (Vivascience) with a molecular weight cut off of 30K. The obtained concentrate was dialyzed against Sephadex G-25 (Amersham Biosciences, 358 ml) equilibrated with 50 mM HEPES (pH 7.5) containing 10 mM MgCl2, 2 mM Dithiothreitol, 10 mM Tripotassium Citrate and 0.3 M NaCl. The inner dialysate was concentrated with Vivaspin 20 (Vivascience) with a molecular weight cut off of 30K, and the concentrate was filtered through a 0.22 μm filter to give ACC1. The obtained ACC1 was cryopreserved at −80° C.
ACC1 (0.93 mg/ml) obtained in the above-mentioned (2) was diluted with an enzyme reaction buffer (50 mM HEPES (pH 7.5), 10 mM MgCl2, 10 mM Tripotassium Citrate, 2 mM Dithiothreitol, 0.75 mg/ml Fatty acid free BSA) to concentration of 8 μg/ml, and the mixture was added to each well of 384 well assay plate (Nunc 265196) by 10 μl.
Thereafter, ACC1 inhibitory rate (%) was measured in the same manner as in the below-mentioned Experimental Example 2-(3), and IC50 value was calculated.
ACC2 (Nd) (1.1 mg/ml) obtained in the above-mentioned (2) was diluted with an enzyme reaction buffer (50 mM HEPES (pH 7.5), 10 mM MgCl2, 10 mM Tripotassium Citrate, 2 mM Dithiothreitol, 0.75 mg/ml Fatty acid free BSA) to a concentration of 6.4 μg/ml, and the mixture was added to each well of a 384 well assay plate (Nunc 265196) by 10 μl. […]

SMILES	pIC50
CCNC(=O)Nc1sc2nc(C)ccc2c1C(=O)N1CCC(N2CCCC3(CC(=O)N(C(C)C)C3=O)C2)CC1 (single isomer, unassigned) [Example 19, N-ethyl-N′-(3-{[4-(2-isopropyl-1,3-dioxo-2,7-diazaspiro[4.5]dec-7-yl)piperidin-1-yl]carbonyl}-6-methylthieno[2,3-b]pyridin-2-yl)urea]	7.00 to 8.00
CNC(=O)Nc1sc2ncccc2c1C(=O)N1CCC(N2CCCC3(C2)SC(=O)N(C(C)C)C3=O)CC1 (centres unmarked) [Example 11, N-(3-{[4-(3-isopropyl-2,4-dioxo-1-thia-3,7-diazaspiro[4.5]dec-7-yl)piperidin-1-yl]carbonyl}thieno[2,3-b]pyridin-2-yl)-N′-methylurea]	7.00 to 8.00
CNC(=O)Nc1sc2nc(C)ccc2c1C(=O)N1CCC(N2CCCC3(C2)SC(=O)N(C(C)C)C3=O)CC1 (centres unmarked) [Example 31, N-(3-{[4-(3-isopropyl-2,4-dioxo-1-thia-3,7-diazaspiro[4.5]dec-7-yl)piperidin-1-yl]carbonyl}-6-methylthieno[2,3-b]pyridin-2-yl)-N′-methylurea]	7.00 to 8.00

The remaining lines, values ahead:

pIC50	SMILES
7.00 to 8.00	CCNC(=O)Nc1sc2nc(C)ccc2c1C(=O)N1CCC(N2CCCC3(C2)N=C(C)N(C(C)C)C3=O)CC1 (centres unmarked) [Example 52]
7.00 to 8.00	CCNC(=O)Nc1sc2nc(C(F)(F)F)ccc2c1C(=O)N1CCC(N2CCCC3(CC(=O)N(C(C)C)C3=O)C2)CC1 (centres unmarked) [Example 96, N-ethyl-N′-[3-{[4-(2-isopropyl-1,3-dioxo-2,7-diazaspiro[4.5]dec-7-yl)piperidin-1-yl]carbonyl}-6-(trifluoromethyl)thieno[2,3-b]pyridin-2-yl]urea]
